In brackets after ≈: the same amount, converted by molar mass.
Key:
Type in all cases: cell-based
[1] = tested on: Staphylococcus aureus (NBRC12732); assay: Growth inhibition activity (MIC, agar) against aerobic bacteria; settings: Staphylococcus aureus; strain NBRC12732; Mueller Hinton Agar, 37 degrees C. overnight; read-out: MIC (Minimum Inhibitory Concentration)
Experimental: (§1) In the present invention, the growth inhibition activity, which is an indicator of the antimicrobial activity, is evaluated by determining the Minimum Inhibitory Concentration (MIC) with an agar or liquid medium.
(§2) In the test for the growth inhibition activity, the following strains were used as skin-related bacteria: • Staphylococcus epidermidis: Staphylococcus epidermidis (JCM2414T and ATCC 12228) • Staphylococcus aureus: Staphylococcus aureus (NBRC12732 and JCM2151) • Skin indigenous bacteria which introduce a superficial infection: Corynebacterium minutissimum (NBRC15361T) • Armpit odor-causing bacteria: Corynebacterium xerosis (JCM1324)
(§3) The test strains were cultured in the liquid medium which the Bioresource center recommends, and then the test strains were subcultured to a Mueller Hinton Broth (Difco) at 30 degrees C. The grown bacteria were diluted to 10^6 CFU/ml with saline to adjust the bacteria fluids for inoculation.
(§4) Furthermore, in order to examine the growth inhibition activities against the bacteria by the above cooling agents, the concentration of the cooling agents: (3S)-CA20, (3R)-CA20, CA1, CA5, CA15, CA55 or CA MGH was diluted with ethanol to the required level of concentration for the determining the Minimum Inhibitory Concentration to produce the sample liquids.
(§5) Next, 100 μL of each sample liquid was added to 10 mL of a Mueller Hinton Agar (Difco) agar medium solution in a soluble state, and each agar medium solution was poured into a petri dish and solidified to prepare test plates having several concentrations of the sample liquids (several concentrations of the above cooling agents). Subsequently, 5 μL of the above bacteria fluids for inoculation were stamped on the test plates, and then the test plates were cultured at 37 degrees C. overnight.
(§6) In this way, the growth inhibition activities by (3S)-CA20, (3R)-CA20, CA1, CA5, CA15, CA55, CA MGH were examined. The minimum concentration of the cooling agent in which the growth of bacteria could not be confirmed was considered as the MIC (Minimum Inhibitory Concentration).
(§7) The minimum concentration of the cooling agent in which the grown strain could not be confirmed was considered as the MIC (Minimum Inhibitory Concentration).

[2] = tested on: Staphylococcus epidermidis (JCM2414T); assay: as above; settings: Staphylococcus epidermidis, strain JCM2414T; Mueller Hinton Agar, 37 degrees C. overnight; read-out: MIC (Minimum Inhibitory Concentration)
Experimental: as §1, §2, §3, §4, §5, §6, §7

[3] = tested on: Staphylococcus aureus (JCM2151); assay: as above; settings: Staphylococcus aureus; strain JCM2151; Mueller Hinton Agar, 37 degrees C. overnight; read-out: MIC (Minimum Inhibitory Concentration)
Experimental: as §1, §2, §3, §4, §5, §6, §7

[4] = tested on: Staphylococcus epidermidis (ATCC 12228); assay: as above; settings: strain ATCC12228, Mueller Hinton Agar, 37 degrees C. overnight, read-out: MIC (Minimum Inhibitory Concentration)
Experimental: as §1, §2, §3, §4, §5, §6, §7

[5] = tested on: Corynebacterium minutissimum (NBRC15361T); assay: as above; settings: Corynebacterium minutissimum; strain NBRC15361T; Mueller Hinton Agar, 37 degrees C. overnight; read-out: MIC (Minimum Inhibitory Concentration)
Experimental: as §1, §2, §3, §4, §5, §6, §7

[6] = tested on: Corynebacterium xerosis (JCM1324); assay: as above; settings: Corynebacterium xerosis; strain JCM1324; Mueller Hinton Agar, 37 degrees C. overnight; read-out: MIC (Minimum Inhibitory Concentration)
Experimental: as §1, §2, §3, §4, §5, §6, §7

[7] = tested on: Actinomyces viscosus (JCM8352); assay: Growth inhibition activity (MIC, agar) against anaerobic bacteria; settings: Actinomyces viscosus, 72 h; strain JCM8352; Trypticase Soy Broth agar, 37 degrees C. for 3 days; read-out: MIC (Minimum Inhibitory Concentration)
Experimental: as §1
(§8) In the test for growth inhibition activity, the following strains were used: • Acne bacteria: Propionibacterium acnes (JCM6473) and (ATCC6919) • Abscess bacteria: Bacteroides fragilis (GAI5560) • Cavity-causing bacteria: Streptococcus mutans (JCM5175), Actinomyces naeslundii (JCM8350) and Actinomyces viscosus (JCM8352) • Periodontal pathogen: Fusobacterium nucleatum (JCM6328), Porphyromonas gingivalis (JCM8525), Prevotella nigrescens (JCM6322)
(§9) The test strains were cultured in a GAM medium (Nissui Pharmaceutical Co., LTD), a Schaedler Broth (BBL) or a Trypticase Soy Broth (BBL) liquid medium, and then the grown bacteria were diluted in saline to prepare turbidity 0.5 McFarland of the bacteria fluids for inoculation. The bacteria were cultured at 37 degrees C. for 3 days under an anaerobic condition by using AnaeroPack® from MGC.
(§10) Furthermore, in order to examine the growth inhibition activities against the bacteria by the above cooling agent, the concentration of the cooling agents: (3S)-CA20, (3R)-CA20, CA1, CA5, CA15, CA55 or CA MGH was diluted with ethanol to the required level of concentrations for the determining the Minimum Inhibitory Concentration to produce the sample liquids.
(§11) Next, 100 μL of each sample liquid was added to 10 mL of a Trypticase Soy Broth agar medium solution in a soluble state, and each agar medium solution was poured into a petri dish and solidified, to prepare the test plates. Subsequently, 5 μL of above the bacteria fluids for inoculation were stamped on the test plates, and then the test plates were cultured at 37 degrees C. for 3 days.
(§12) The minimum concentration of the cooling agent in which the growth of bacteria could not be confirmed was considered as the MIC (Minimum Inhibitory Concentration).
as §12

[8] = tested on: Fusobacterium nucleatum (JCM6328); assay: as above; settings: 72 h, strain JCM6328, Trypticase Soy Broth agar, 37 degrees C. for 3 days, read-out: MIC (Minimum Inhibitory Concentration)
Experimental: as §1, §8, §9, §10, §11, §12, §12

[9] = tested on: Actinomyces naeslundii (JCM8350); assay: as above; settings: Actinomyces naeslundii, JCM8350, 72 h, strain JCM8350; Trypticase Soy Broth agar, 37 degrees C. for 3 days; read-out: MIC (Minimum Inhibitory Concentration)
Experimental: as §1, §8, §9, §10, §11, §12, §12

[10] = tested on: Propionibacterium acnes (ATCC6919); assay: as above; settings: Cutibacterium acnes, ATCC6919, 72 h, strain ATCC6919; Trypticase Soy Broth agar, 37 degrees C. for 3 days; read-out: MIC (Minimum Inhibitory Concentration)
Experimental: as §1, §8, §9, §10, §11, §12, §12

[11] = tested on: Bacteroides fragilis (GAI5560); assay: as above; settings: Bacteroides fragilis, 72 h; strain GAI5560; Trypticase Soy Broth agar, 37 degrees C. for 3 days; read-out: MIC (Minimum Inhibitory Concentration)
Experimental: as §1, §8, §9, §10, §11, §12, §12

[12] = tested on: Streptococcus mutans (JCM5175); assay: as above; settings: Streptococcus mutans, 72 h; strain JCM5175; Trypticase Soy Broth agar, 37 degrees C. for 3 days; read-out: MIC (Minimum Inhibitory Concentration)
Experimental: as §1, §8, §9, §10, §11, §12, §12

| SMILES | MIC [1] | MIC [2] | MIC [3] | MIC [4] | MIC [5] | MIC [6] | MIC [7] | MIC [8] | MIC [9] | MIC [10] | MIC [11] | MIC [12] |
| --- | --- | --- | --- | --- | --- | --- | --- | --- | --- | --- | --- | --- |
| CC1CCC(C(C)(C)O)C(O)C1 (centres unmarked) [CA38, p-menthane-3,8-diol, reference compound] | > 1600 µg/mL | > 1600 µg/mL | > 1600 µg/mL | > 1600 µg/mL | > 1600 µg/mL | > 1600 µg/mL | > 1600 µg/mL | > 1600 µg/mL | > 1600 µg/mL | > 1600 µg/mL | 1600 µg/mL (≈ 9.29 mM) | > 1600 µg/mL |
| CNC(=O)C(C)(C(C)C)C(C)C [WS-23, N-methyl-2-isopropyl-2,3-dimethylbutanamide, reference compound] | > 1600 µg/mL | > 1600 µg/mL | > 1600 µg/mL | – | > 1600 µg/mL | > 1600 µg/mL | > 1600 µg/mL | – | > 1600 µg/mL | > 1600 µg/mL | > 1600 µg/mL | > 1600 µg/mL |
| CC1CCC(C(C)C)C(OCCO)C1 (centres unmarked) [CA5, 2-(menthoxy)ethanol] | 800 µg/mL (≈ 3.99 mM) | 800 µg/mL (≈ 3.99 mM) | 400 µg/mL (≈ 2 mM) | 800 µg/mL (≈ 3.99 mM) | 800 µg/mL (≈ 3.99 mM) | 800 µg/mL (≈ 3.99 mM) | 200 µg/mL (≈ 0.998 mM) | 400 µg/mL (≈ 2 mM) | 800 µg/mL (≈ 3.99 mM) | 400 µg/mL (≈ 2 mM) | 200 µg/mL (≈ 0.998 mM) | 800 µg/mL (≈ 3.99 mM) |
| CC1CCC(C(C)C)C(OCC(C)(O)CO)C1 (centres unmarked) [CA1, 2-methyl-3-(menthoxy)propane-1,2-diol] | 800 µg/mL (≈ 3.27 mM) | 400 µg/mL (≈ 1.64 mM) | 400 µg/mL (≈ 1.64 mM) | 800 µg/mL (≈ 3.27 mM) | 400 µg/mL (≈ 1.64 mM) | 800 µg/mL (≈ 3.27 mM) | < 50 µg/mL | 800 µg/mL (≈ 3.27 mM) | 800 µg/mL (≈ 3.27 mM) | 400 µg/mL (≈ 1.64 mM) | 100 µg/mL (≈ 0.409 mM) | 800 µg/mL (≈ 3.27 mM) |
| CC1CCC(C(C)C)C(OCCCO)C1 (centres unmarked) [CA15, 3-menthoxypropan-1-ol] | 400 µg/mL (≈ 1.87 mM) | 400 µg/mL (≈ 1.87 mM) | 200 µg/mL (≈ 0.933 mM) | 400 µg/mL (≈ 1.87 mM) | 200 µg/mL (≈ 0.933 mM) | 400 µg/mL (≈ 1.87 mM) | 200 µg/mL (≈ 0.933 mM) | 400 µg/mL (≈ 1.87 mM) | 400 µg/mL (≈ 1.87 mM) | 400 µg/mL (≈ 1.87 mM) | 100 µg/mL (≈ 0.467 mM) | 400 µg/mL (≈ 1.87 mM) |
| CC1CCC(C(C)C)C(OC(=O)C=O)C1 (centres unmarked) [CA MGH, menthyl glyoxylate] | 100 µg/mL (≈ 0.471 mM) | 50 µg/mL (≈ 0.236 mM) | 100 µg/mL (≈ 0.471 mM) | 50 µg/mL (≈ 0.236 mM) | 100 µg/mL (≈ 0.471 mM) | 100 µg/mL (≈ 0.471 mM) | 200 µg/mL (≈ 0.942 mM) | 100 µg/mL (≈ 0.471 mM) | 200 µg/mL (≈ 0.942 mM) | 100 µg/mL (≈ 0.471 mM) | 50 µg/mL (≈ 0.236 mM) | 100 µg/mL (≈ 0.471 mM) |
| CC(O)CC(=O)OC1CC(C)CCC1C(C)C [(3S)-CA20, menthyl 3-hydroxybutanoate] | 200 µg/mL (≈ 0.825 mM) | 100 µg/mL (≈ 0.413 mM) | 100 µg/mL (≈ 0.413 mM) | – | 200 µg/mL (≈ 0.825 mM) | 100 µg/mL (≈ 0.413 mM) | 100 µg/mL (≈ 0.413 mM) | – | 100 µg/mL (≈ 0.413 mM) | 200 µg/mL (≈ 0.825 mM) | 100 µg/mL (≈ 0.413 mM) | 200 µg/mL (≈ 0.825 mM) |
| CC1CCC(C(C)C)C(O)C1 (stereo not drawn) [l-menthol, menthol, reference compound] | 1600 µg/mL (≈ 10.2 mM) | 1600 µg/mL (≈ 10.2 mM) | 1600 µg/mL (≈ 10.2 mM) | 1600 µg/mL (≈ 10.2 mM) | 1600 µg/mL (≈ 10.2 mM) | 1600 µg/mL (≈ 10.2 mM) | 1600 µg/mL (≈ 10.2 mM) | 1600 µg/mL (≈ 10.2 mM) | 1600 µg/mL (≈ 10.2 mM) | 1600 µg/mL (≈ 10.2 mM) | 1600 µg/mL (≈ 10.2 mM) | > 1600 µg/mL |
| CC1CCC(C(C)C)C(OCCOCCO)C1 (centres unmarked) [CA55, 2-(2-menthoxyethoxy)ethanol] | 800 µg/mL (≈ 3.27 mM) | 800 µg/mL (≈ 3.27 mM) | 800 µg/mL (≈ 3.27 mM) | 800 µg/mL (≈ 3.27 mM) | 800 µg/mL (≈ 3.27 mM) | 800 µg/mL (≈ 3.27 mM) | 800 µg/mL (≈ 3.27 mM) | 800 µg/mL (≈ 3.27 mM) | 800 µg/mL (≈ 3.27 mM) | 800 µg/mL (≈ 3.27 mM) | 100 µg/mL (≈ 0.409 mM) | 800 µg/mL (≈ 3.27 mM) |
| CC1CCC(C(C)C)C(OCC(O)CO)C1 (centres unmarked) [CA10, 3-menthoxypropane-1,2-diol, reference compound] | 1600 µg/mL (≈ 6.95 mM) | 800 µg/mL (≈ 3.47 mM) | 800 µg/mL (≈ 3.47 mM) | 1600 µg/mL (≈ 6.95 mM) | 800 µg/mL (≈ 3.47 mM) | 800 µg/mL (≈ 3.47 mM) | < 50 µg/mL | 800 µg/mL (≈ 3.47 mM) | 800 µg/mL (≈ 3.47 mM) | 800 µg/mL (≈ 3.47 mM) | 100 µg/mL (≈ 0.434 mM) | 800 µg/mL (≈ 3.47 mM) |
